Values quoted from earlier work as cited in patent publication US12378302B2, “Fusion molecules and uses thereof” (Foundation Medicine, Inc., priority 2012, dated 2025).
Blank lines part the entries; values can stand above or below the compound they belong to.

Legend:
[1] = tested on: MEK1/2; conditions: read-out: IC50 against MEK1/2
[2] = tested on: cytokine production such as IL-1, TNF and IL-6; conditions: clinical trials
[3] = tested on: cellular pERK
[4] = tested on: MM cell lines
[5] = tested on: FGFR4, VEGFR2 (KDR)
[6] = target: ALK (Homo sapiens, UniProt Q9UM73); conditions: read-out: IC50 ALK
[7] = tested on: CDK1/2/3/4/7/9; conditions: range over the CDKs
[8] = tested on: MEK1, MEK2, ERK2, and JNK2
[9] = tested on: HCV replicon genotypes and the JFH-1 genotype 2a infectious virus (HCV NS5A); conditions: cell culture
[10] = tested on: VEGFR-1 and FGFR-1
[11] = tested on: other protein kinases
[12] = tested on: ERK1/2 phosphorylation
[13] = tested on: Akt-phosphorylation
[14] = target: c-Met (Homo sapiens, UniProt P08581); conditions: read-out: IC50 against c-Met (WT/mutants)
[15] = tested on: c-Met
[16] = tested on: Ron, Flt1
[17] = tested on: PDGFRα/β, Flt-3 and Abl
[18] = tested on: Flt-1, c-Raf and Lck
[19] = target: CSF-1R (Homo sapiens, UniProt P07333); conditions: read-out: IC50 against CSF-1R
[20] = tested on: MEK; conditions: read-out: IC50 against MEK
[21] = tested on: ERK1 or ERK2
[22] = tested on: CDK1/2/5, EGFR, FGFR, PDGFR, and InsR
[23] = target: MEK1 (Homo sapiens, UniProt Q02750); conditions: read-out: IC50 against MEK1
[24] = tested on: Erk1, MKK3, MKK4, c-JUN, PKC, PKA, or CamKII
[25] = target: MEK2 (Homo sapiens, UniProt P36507); conditions: read-out: IC50 against MEK2
[26] = tested on: IGF-1R, Met, Src, Lck, Zap70, Abl and CDK2
[27] = tested on: Flk-1 and FGFR1 trans-phosphorylation
[28] = tested on: Abl1, AKT3, c-RAF, CamK1, CDK2, c-Met
[29] = target: c-Raf, B-Raf, ERK1/2
[30] = target: EGFR (Homo sapiens, UniProt P00533)
[31] = tested on: PDGFR; conditions: read-out: IC50 against PDGFR

Chain of MEK1 (Q02750 whole entry, species assumed): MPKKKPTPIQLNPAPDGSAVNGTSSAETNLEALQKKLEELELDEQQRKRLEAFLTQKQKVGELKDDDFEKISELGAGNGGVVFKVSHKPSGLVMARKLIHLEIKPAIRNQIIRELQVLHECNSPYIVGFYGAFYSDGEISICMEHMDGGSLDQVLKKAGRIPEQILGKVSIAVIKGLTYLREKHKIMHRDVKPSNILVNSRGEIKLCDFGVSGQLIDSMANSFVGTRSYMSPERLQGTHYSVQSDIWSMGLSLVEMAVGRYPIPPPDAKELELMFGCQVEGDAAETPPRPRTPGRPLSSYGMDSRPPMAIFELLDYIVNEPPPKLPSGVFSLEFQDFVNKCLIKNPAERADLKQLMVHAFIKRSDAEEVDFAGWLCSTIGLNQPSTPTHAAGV
Chain of ALK (Q9UM73 19-1620): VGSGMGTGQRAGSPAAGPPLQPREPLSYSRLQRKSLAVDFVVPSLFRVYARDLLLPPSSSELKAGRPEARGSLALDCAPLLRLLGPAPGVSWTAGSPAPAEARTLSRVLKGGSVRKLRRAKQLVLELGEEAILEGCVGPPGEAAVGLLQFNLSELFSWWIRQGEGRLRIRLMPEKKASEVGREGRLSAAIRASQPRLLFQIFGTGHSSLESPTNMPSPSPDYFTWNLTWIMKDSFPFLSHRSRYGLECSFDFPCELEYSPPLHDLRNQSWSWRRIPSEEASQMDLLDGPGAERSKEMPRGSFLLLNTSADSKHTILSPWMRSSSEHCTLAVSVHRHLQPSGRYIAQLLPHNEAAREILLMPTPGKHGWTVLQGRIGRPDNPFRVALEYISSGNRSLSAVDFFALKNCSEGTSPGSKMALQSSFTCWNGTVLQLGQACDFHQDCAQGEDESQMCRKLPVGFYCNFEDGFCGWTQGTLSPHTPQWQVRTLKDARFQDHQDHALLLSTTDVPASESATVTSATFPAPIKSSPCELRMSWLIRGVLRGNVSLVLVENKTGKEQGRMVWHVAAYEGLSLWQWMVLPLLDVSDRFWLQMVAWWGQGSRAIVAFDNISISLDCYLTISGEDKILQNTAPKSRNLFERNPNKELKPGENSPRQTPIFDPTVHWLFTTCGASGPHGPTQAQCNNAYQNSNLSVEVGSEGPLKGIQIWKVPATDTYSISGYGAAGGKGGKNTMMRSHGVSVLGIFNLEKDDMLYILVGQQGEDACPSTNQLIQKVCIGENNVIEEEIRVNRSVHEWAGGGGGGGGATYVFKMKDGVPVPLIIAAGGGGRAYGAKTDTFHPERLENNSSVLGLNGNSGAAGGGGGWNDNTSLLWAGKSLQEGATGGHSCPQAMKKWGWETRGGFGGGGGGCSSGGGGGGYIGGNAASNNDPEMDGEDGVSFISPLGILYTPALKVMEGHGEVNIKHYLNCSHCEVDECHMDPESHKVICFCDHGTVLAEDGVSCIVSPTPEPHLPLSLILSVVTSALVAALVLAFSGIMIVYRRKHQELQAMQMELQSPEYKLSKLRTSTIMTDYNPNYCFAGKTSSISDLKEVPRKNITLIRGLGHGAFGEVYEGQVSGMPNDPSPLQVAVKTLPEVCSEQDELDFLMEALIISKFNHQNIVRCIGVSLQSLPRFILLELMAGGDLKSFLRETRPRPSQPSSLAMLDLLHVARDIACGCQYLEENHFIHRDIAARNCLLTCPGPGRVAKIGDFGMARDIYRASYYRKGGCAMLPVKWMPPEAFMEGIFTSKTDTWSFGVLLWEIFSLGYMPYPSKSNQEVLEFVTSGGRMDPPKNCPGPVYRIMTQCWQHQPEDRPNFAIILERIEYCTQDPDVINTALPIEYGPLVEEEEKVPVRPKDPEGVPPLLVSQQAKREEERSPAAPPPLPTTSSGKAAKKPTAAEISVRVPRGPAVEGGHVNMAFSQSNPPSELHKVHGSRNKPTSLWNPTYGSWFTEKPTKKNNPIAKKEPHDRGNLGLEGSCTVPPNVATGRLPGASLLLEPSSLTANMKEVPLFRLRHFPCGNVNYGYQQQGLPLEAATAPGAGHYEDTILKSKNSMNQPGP
Chain of EGFR (P00533 25-1210): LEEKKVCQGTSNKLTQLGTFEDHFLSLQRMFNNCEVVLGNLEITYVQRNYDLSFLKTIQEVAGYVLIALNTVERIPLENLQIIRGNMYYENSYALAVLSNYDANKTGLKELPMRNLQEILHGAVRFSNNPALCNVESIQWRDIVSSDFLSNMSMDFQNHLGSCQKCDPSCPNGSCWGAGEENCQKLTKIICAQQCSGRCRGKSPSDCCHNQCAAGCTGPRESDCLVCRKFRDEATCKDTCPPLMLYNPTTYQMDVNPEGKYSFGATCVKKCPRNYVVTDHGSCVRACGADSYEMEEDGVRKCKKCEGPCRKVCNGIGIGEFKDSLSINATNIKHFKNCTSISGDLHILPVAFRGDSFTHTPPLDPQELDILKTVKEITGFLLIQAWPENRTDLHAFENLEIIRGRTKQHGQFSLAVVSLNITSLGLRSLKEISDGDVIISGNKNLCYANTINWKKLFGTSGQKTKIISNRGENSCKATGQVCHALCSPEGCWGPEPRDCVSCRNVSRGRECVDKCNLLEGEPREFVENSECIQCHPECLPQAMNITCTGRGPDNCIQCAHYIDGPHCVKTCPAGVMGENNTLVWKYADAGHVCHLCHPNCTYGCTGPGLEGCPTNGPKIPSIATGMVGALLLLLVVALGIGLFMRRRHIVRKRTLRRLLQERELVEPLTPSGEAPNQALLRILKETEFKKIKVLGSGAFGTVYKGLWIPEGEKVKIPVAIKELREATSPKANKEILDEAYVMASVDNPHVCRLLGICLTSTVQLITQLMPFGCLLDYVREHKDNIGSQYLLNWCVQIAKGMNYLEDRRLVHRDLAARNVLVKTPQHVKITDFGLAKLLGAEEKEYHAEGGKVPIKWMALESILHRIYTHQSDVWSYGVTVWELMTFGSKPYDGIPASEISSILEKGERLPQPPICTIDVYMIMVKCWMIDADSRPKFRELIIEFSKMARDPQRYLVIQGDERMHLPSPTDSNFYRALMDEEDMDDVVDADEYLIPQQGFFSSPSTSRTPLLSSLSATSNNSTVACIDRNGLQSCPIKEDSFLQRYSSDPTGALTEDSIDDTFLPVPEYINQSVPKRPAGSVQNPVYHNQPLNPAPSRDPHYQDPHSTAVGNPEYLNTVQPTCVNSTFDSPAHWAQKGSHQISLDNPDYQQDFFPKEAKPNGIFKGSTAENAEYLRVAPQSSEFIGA
Chain of CSF-1R (P07333 20-972, species assumed): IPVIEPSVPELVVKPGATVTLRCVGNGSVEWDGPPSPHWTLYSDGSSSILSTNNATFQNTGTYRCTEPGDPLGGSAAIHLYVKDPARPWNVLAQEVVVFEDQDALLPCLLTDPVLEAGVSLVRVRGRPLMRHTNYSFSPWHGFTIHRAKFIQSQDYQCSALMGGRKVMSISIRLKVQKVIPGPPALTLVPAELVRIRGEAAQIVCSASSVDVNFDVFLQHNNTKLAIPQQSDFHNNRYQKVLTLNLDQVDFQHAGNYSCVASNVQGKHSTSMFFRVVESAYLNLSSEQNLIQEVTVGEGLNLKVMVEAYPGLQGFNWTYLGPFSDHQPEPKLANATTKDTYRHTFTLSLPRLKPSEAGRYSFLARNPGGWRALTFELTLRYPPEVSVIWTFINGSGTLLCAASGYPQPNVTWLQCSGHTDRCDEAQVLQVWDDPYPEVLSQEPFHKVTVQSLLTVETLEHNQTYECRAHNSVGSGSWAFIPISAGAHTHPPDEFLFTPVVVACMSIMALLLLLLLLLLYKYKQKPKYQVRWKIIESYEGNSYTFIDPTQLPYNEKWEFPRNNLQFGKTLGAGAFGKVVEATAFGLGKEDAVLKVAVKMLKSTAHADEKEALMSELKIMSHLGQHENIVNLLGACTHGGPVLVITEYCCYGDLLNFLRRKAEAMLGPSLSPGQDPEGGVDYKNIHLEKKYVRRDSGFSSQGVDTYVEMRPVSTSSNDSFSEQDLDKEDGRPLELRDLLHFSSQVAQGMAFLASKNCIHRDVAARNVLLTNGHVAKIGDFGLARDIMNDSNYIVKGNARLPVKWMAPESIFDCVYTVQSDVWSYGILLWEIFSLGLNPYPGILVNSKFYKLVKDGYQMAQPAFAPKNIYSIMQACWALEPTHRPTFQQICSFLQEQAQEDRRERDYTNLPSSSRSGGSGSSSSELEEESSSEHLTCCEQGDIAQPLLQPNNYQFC
Chain of MEK2 (P36507 whole entry, species assumed): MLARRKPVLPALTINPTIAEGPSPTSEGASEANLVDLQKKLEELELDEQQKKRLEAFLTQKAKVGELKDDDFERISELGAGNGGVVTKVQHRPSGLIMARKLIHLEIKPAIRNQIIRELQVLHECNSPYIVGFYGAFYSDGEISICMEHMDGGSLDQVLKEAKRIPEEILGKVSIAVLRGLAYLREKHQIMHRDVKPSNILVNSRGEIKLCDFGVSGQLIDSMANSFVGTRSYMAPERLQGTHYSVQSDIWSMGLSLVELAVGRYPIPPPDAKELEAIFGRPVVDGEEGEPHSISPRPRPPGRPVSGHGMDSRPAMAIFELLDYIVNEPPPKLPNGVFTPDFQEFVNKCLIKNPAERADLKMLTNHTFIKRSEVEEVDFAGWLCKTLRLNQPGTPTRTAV

- IC50 [1]: 12 nM
- IC50 [3]: 11 nM
Structure (SMILES): Cn1cnc2c(F)c(Nc3ccc(Br)cc3F)c(C(=O)NOCCO)cc21 [ARRY-162, 5-((4-bromo-2-fluorophenyl)amino)-4-fluoro-N-(2-hydroxyethoxy)-1-methyl-1H-benzo[d]imidazole-6-carboxamide]
- Ex vivo effect on cytokine production such as IL-1, TNF and IL-6 [2]: inhibition

- IC50 [4]: 5 to 2000 nM
Structure (SMILES): O=C(NC[C@H](O)CO)c1ccncc1Nc1ccc(I)cc1F [AS-703026, (S)—N-(2,3-dihydroxypropyl)-3-(2-fluoro-4-iodophenylamino) isonicotinamide]

- IC50 [6]: 22 nM
Structure (SMILES): COc1cc(N2CCC(N)CC2)ccc1Nc1ncc(Cl)c(-c2c[nH]c3ccccc23)n1 [AZD-3463, 2-Pyrimidinamine, N-[4-(4-amino-1-piperidinyl)-2-methoxyphenyl]-5-chloro-4-(1H-indol-3-yl)-]

- IC50 [7]: 5 to 25 nM
Structure (SMILES): C[C@@H](O)[C@@H](C)Oc1nc(Nc2ccc(S(=N)(=O)C3CC3)cc2)ncc1C(F)(F)F (stereo partly drawn) [BAY 1000394, 2-Butanol, 3-[[2-[[4-[[S(R)]—S-cyclopropylsulfonimidoyl]phenyl]amino]-5-(trifluoromethyl)-4-pyrimidinyl]oxy]-, (2R,3R)—]

- IC50 [19]: 15 nM
Structure (SMILES): O=C(Nc1ccc(OC(F)(F)F)cc1)c1sccc1NCc1ccnc2ccccc12 [OSI-930]
- Activity against PDGFRα/β, Flt-3 and Abl [17]: low activity
- Potency to Flt-1, c-Raf and Lck [18]: also potent

Structure (SMILES): COc1cccc(-c2cc(=O)c3ccccc3o2)c1N [PD98059, 2-(2-amino-3-methoxyphenyl)-4H-chromen-4-one]
- Direct inhibition of ERK1 or ERK2 [21]: does not directly inhibit

- IC50 [23]: ~180 nM
- IC50 [25]: ~220 nM
Structure (SMILES): N#C/C(=C(/N)Sc1ccc(N)cc1)c1ccccc1C(F)(F)F [SL327, (Z)-3-amino-3-(4-aminophenylthio)-2-(2-(trifluoromethyl)phenyl) acrylonitrile]
- Activity towards Erk1, MKK3, MKK4, c-JUN, PKC, PKA, or CamKII [24]: no activity

- IC50 [23]: ~3.2 nM
Structure (SMILES): Cn1c(=O)c(F)c(Nc2ccc(I)cc2F)c2c(=O)n(C[C@@H](O)CO)cnc21 [TAK-733, (R)-3-(2,3-dihydroxypropyl)-6-fluoro-5-(2-fluoro-4-iodophenylamino)-8-methylpyrido[2,3-d]pyrimidine-4,7(3H,8H)-dione]
- Activity to Abl1, AKT3, c-RAF, CamK1, CDK2, c-Met [28]: inactive

- Kinase activities of c-Raf, B-Raf, ERK1/2 [29]: does not inhibit
Structure (SMILES): CC(=O)Nc1cccc(-n2c(=O)n(C3CC3)c(=O)c3c(Nc4ccc(I)cc4F)n(C)c(=O)c(C)c32)c1 [Trametinib, N-(3-{3-Cyclopropyl-5-[(2-fluoro-4-iodophenyl)amino]-6,8-dimethyl-2,4,7-trioxo-3,4,6,7-tetrahydropyrido[4,3-d]pyrimidin-1(2H)-yl}phenyl)acetamide]

- Activity against EGFR [30]: no activity
- IC50 [31]: 300 to 500 nM
Structure (SMILES): COc1cc2ncc(-c3ccccc3)nc2cc1OC [Tyrphostin AG 1296, Quinoxaline, 6,7-dimethoxy-2-phenyl-]

The next lines start with the compound.

Structure (SMILES): COc1cc(CCc2cc(NC(=O)c3ccc(N4C[C@@H](C)N[C@@H](C)C4)cc3)n[nH]2)cc(OC)c1 [AZD4547, N-(5-(3,5-dimethoxyphenethyl)-1H-pyrazol-3-yl)-4-((3S,5R)-3,5-dimethylpiperazin-1-yl)benzamide]
- Activity against FGFR4, VEGFR2 (KDR) [5]: weaker activity

Structure (SMILES): CN(C)Cc1cccc(N/C(=C2\C(=O)Nc3cc(C(=O)N(C)C)ccc32)c2ccccc2)c1 [BIX 02189, (Z)-3-((3-((dimethylamino)methyl)phenylamino)(phenyl)methylene)-N,N-dimethyl-2-oxoindoline-6-carboxamide]
- Inhibition of closely related kinases MEK1, MEK2, ERK2, and JNK2 [8]: does not inhibit

Structure (SMILES): COC(=O)N[C@H](C(=O)N1CCC[C@H]1c1ncc(-c2ccc(-c3ccc(-c4cnc([C@@H]5CCCN5C(=O)[C@@H](NC(=O)OC)C(C)C)[nH]4)cc3)cc2)[nH]1)C(C)C [BMS-790052, Carbamic acid, N,N′-[[1,1′-biphenyl]-4,4′-diylbis[1H-imidazole-5,2-diyl-(2S)-2,1-pyrrolidinediyl[(1S)-1-(1-methylethyl)-2-oxo-2,1-ethanediyl]]]bis-,C,C′-dimethyl ester]
- EC50 [9]: 0.009 to 0.05 nM

Structure (SMILES): Cc1cc2c(F)c(Oc3ncnn4cc(OC[C@@H](C)O)c(C)c34)ccc2[nH]1 [Brivanib, (R)-1-(4-(4-fluoro-2-methyl-1H-indol-5-yloxy)-5-methylpyrrolo[1,2-f][1,2,4]triazin-6-yloxy)propan-2-ol]
- Potency against VEGFR-1 and FGFR-1 [10]: moderate potency

Structure (SMILES): CNC(=O)c1c(F)cccc1Nc1nc(Nc2cc3c(cc2OC)CCN3C(=O)CN(C)C)nc2[nH]ccc12 [GSK1838705A, 2-(2-(1-(2-(dimethylamino)acetyl)-5-methoxyindolin-6-ylamino)-7H-pyrrolo[2,3-d]pyrimidin-4-ylamino)-6-fluoro-N-methylbenzamide]
- activity to other protein kinases [11]: little activity

Structure (SMILES): C=CCc1ccc(O)c(-c2ccc(O)c(CC=C)c2)c1 [Honokiol, 2-(4-hydroxy-3-prop-2-enyl-phenyl)-4-prop-2-enyl-phenol]
- Effect on ERK1/2 phosphorylation [12]: promotes
- Effect on Akt-phosphorylation [13]: inhibits

Structure (SMILES): CN(C[C@@H]1COCCO1)S(=O)(=O)Nc1ccc2ccc3ncc(-c4cnn(C)c4)cc3c(=O)c2c1 [MK-2461, N-((2R)-1,4-Dioxan-2-ylmethyl)-N-methyl-N′-[3-(1-methyl-1H-pyrazol-4-yl)-5-oxo-5H-benzo[4,5]cyclohepta[1,2-b]pyridin-7-yl]sulfamide]
- IC50 [14]: 0.4 to 2.5 nM
- Selectivity of c-Met targets versus FGFR1, FGFR2, FGFR3, PDGFRβ, KDR, Flt3, Flt4, TrkA, and TrkB [15]: 8- to 30 fold
- Potency to Ron, Flt1 [16]: less potent

Structure (SMILES): CC(=O)c1c(C)c2cnc(Nc3ccc(N4CCNCC4)cn3)nc2n(C2CCCC2)c1=O [PD0332991 Isethionate, Ethanesulfonic acid, 2-hydroxy-, compd. with 6-acetyl-8-cyclopentyl-5-methyl-2-[[5-(1-piperazinyl)-2-pyridinyl]amino]pyrido[2,3-d]pyrimidin-7(8H)-one (1:1)]
- activity against CDK1/2/5, EGFR, FGFR, PDGFR, and InsR [22]: no activity

Structure (SMILES): Cc1[nH]c(/C=C2\C(=O)Nc3ccccc32)c(C)c1CCC(=O)O [SU6668, (Z)-3-(2,4-dimethyl-5-((2-oxoindolin-3-ylidene)methyl)-1H-pyrrol-3-yl)propanoic acid]
- Activity against IGF-1R, Met, Src, Lck, Zap70, Abl and CDK2 [26]: little activity
- Inhibition of Flk-1 and FGFR1 trans-phosphorylation [27]: strongly inhibits
